In PMC3382171 (PLoS ONE, 2012):

Legend:
Test in all cases: biochemical
Parameters in all cases: Invitrogen SelectScreen kinase panel, percent inhibition at 1 uM, ATP at Km
Details in all cases: read-out: Invitrogen KSS %Inh at 1 µM
ACVR1B (ALK4) = ACVR1B (ALK4) (Homo sapiens, UniProt P36896)
Procedure: (§1) The METi and RAFi were screened against kinase panels (SelectScreen, Invitrogen; University of Dundee, Division of Signal Transduction Therapy, UK; Upstate Biotechnology/Millipore, Billerica, MA). In these selectivity assays the concentration of ATP was set to the Km value of ATP for each kinase tested to allow for a relative potency comparison between the various kinases. The compounds were tested at 1 µM final concentration. […] Supplementary file pone.0039653.s002.pdf: Figure S2 Kinase Selectivity Screen of RAFi. (A) Kinase selectivity screen (KSS) performed at University of Dundee (Division of Signal Transduction Therapy). Values in % inhibition of phosphorylation given 1 µM of RAFi compared to control. (B) KSS performed at Invitrogen (Selectscreen Service) compared to control. Values in % inhibition of phosphorylation given 1 µM of RAFi. (C) Cell based dose response kinase inhibition of indicated kinases by RAFi. (PDF) Click here for additional data file.

BLK = BLK (Homo sapiens, UniProt P51451)
Procedure: as §1

CSNK1D (CK1 delta) = CSNK1D (CK1 delta) (Homo sapiens, UniProt P48730)
Chain of CSNK1D (CK1 delta) (P48730 whole entry): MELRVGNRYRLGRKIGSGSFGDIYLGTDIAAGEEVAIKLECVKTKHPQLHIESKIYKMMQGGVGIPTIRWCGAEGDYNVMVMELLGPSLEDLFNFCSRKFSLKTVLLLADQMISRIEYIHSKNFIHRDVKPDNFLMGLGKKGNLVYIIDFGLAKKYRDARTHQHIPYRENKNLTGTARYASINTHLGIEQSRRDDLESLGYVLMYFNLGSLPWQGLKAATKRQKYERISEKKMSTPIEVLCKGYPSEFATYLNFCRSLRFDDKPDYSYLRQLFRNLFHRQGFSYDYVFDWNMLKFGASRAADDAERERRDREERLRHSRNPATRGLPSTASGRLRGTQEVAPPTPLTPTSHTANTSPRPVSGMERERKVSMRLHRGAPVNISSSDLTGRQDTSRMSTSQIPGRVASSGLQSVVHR
Procedure: as §1

FGR = FGR (Homo sapiens, UniProt P09769)
Procedure: as §1

HCK = HCK (Homo sapiens, UniProt P08631)
Procedure: as §1

KIT = KIT (Homo sapiens, UniProt P10721)
Procedure: as §1

MAP2K6 (MKK6) = MAP2K6 (MKK6) (Homo sapiens, UniProt P52564)
Chain of MAP2K6 (MKK6) (P52564 whole entry): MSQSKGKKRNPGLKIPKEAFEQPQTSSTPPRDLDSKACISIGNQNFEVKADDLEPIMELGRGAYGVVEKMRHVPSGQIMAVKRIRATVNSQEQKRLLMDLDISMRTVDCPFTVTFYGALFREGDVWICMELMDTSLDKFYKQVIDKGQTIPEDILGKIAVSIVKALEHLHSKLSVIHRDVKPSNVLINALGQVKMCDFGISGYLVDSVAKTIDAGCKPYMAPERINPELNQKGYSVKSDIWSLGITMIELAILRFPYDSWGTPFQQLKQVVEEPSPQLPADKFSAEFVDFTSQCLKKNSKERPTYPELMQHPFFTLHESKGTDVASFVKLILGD
Procedure: as §1

MAP4K2 (GCK) = MAP4K2 (GCK) (Homo sapiens, UniProt Q12851)
Procedure: as §1

MAPKAPK3 = MAPKAPK3 (Homo sapiens, UniProt Q16644)
Chain of MAPKAPK3 (Q16644 whole entry): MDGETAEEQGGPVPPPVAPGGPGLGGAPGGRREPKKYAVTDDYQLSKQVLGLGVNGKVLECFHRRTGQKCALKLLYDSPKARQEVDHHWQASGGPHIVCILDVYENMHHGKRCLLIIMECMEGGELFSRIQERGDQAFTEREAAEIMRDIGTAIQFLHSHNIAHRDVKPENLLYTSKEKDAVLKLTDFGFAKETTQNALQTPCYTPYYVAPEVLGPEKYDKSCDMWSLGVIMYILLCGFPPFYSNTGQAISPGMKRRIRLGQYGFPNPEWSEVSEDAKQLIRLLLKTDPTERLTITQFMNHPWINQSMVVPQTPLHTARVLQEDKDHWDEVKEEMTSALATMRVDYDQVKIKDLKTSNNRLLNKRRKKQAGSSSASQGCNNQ
Procedure: as §1

MARK1 = MARK1 (Homo sapiens, UniProt Q9P0L2)
Chain of MARK1 (Q9P0L2 whole entry): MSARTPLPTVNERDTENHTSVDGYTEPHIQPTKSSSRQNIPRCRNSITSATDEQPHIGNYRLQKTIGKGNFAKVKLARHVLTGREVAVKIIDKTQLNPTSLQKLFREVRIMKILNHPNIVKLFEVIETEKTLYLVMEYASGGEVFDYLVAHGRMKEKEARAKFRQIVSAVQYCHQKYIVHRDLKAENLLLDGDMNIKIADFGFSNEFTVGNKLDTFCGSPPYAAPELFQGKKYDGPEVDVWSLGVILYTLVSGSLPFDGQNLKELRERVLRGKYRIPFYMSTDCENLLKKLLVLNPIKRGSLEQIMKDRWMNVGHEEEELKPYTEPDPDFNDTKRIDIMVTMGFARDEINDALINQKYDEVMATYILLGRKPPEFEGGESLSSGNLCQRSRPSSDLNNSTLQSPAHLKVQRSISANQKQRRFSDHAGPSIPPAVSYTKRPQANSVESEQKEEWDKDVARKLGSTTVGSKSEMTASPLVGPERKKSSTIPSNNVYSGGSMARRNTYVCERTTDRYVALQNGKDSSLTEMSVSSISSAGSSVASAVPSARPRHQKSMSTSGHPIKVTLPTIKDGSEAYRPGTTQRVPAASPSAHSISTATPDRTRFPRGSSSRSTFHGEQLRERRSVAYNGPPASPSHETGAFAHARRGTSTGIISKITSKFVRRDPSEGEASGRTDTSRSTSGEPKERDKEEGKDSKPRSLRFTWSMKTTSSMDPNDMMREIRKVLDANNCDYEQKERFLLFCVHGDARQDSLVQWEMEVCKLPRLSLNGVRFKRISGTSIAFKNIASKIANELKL
Procedure: as §1

PAK4 = PAK4 (Homo sapiens, UniProt O96013)
Chain of PAK4 (O96013 whole entry): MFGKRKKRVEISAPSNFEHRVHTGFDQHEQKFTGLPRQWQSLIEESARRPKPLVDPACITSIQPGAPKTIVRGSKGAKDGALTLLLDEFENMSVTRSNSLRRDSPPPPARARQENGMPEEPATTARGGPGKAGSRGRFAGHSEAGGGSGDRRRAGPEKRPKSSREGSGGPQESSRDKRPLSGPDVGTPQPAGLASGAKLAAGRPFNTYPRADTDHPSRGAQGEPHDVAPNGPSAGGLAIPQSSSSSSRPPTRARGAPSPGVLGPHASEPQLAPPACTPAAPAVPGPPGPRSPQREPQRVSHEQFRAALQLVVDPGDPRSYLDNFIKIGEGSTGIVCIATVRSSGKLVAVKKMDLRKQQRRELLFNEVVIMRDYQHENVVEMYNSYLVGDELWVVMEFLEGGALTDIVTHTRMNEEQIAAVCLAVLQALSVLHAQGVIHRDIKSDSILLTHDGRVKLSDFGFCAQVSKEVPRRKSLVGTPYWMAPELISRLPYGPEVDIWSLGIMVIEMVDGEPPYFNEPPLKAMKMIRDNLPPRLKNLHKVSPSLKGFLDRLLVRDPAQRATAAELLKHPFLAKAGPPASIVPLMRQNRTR
Procedure: as §1

PDK1 = target: T1, PDK1 (Homo sapiens, UniProt O15530)
T1 construct: gene PDPK1
T1 sequence (O15530 whole entry): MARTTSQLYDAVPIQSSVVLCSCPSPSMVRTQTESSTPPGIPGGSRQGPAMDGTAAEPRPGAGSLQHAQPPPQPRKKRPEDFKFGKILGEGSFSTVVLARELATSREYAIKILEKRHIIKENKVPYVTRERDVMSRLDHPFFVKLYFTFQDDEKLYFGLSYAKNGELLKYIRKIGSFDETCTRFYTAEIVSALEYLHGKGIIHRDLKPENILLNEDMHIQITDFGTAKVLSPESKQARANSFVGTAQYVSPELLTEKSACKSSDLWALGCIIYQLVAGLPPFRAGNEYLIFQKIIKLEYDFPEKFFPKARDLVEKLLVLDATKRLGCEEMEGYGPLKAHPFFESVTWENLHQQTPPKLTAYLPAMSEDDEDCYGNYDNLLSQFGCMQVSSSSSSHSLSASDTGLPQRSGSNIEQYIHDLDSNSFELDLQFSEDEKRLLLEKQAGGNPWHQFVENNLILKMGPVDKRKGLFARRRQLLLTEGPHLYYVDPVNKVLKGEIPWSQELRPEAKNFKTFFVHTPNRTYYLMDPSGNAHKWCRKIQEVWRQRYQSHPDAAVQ
Procedure: as §1

PKN1 (PRK1) = PKN1 (PRK1) (Homo sapiens, UniProt Q16512)
Procedure: as §1

PLK3 = PLK3 (Homo sapiens, UniProt Q9H4B4)
Procedure: as §1

PRKCB1 (PKC beta I) = target: T2, PRKCB1 (PKC beta I) (Homo sapiens, UniProt P05771)
T2 construct: gene PRKCB; isoform beta I
Procedure: as §1

PRKCD (PKC delta) = PRKCD (PKC delta) (Homo sapiens, UniProt Q05655)
Procedure: as §1

PRKCZ (PKC zeta) = PRKCZ (PKC zeta) (Homo sapiens, UniProt Q05513)
Procedure: as §1

PRKG1 = PRKG1 (Homo sapiens, UniProt Q13976)
Chain of PRKG1 (Q13976 whole entry): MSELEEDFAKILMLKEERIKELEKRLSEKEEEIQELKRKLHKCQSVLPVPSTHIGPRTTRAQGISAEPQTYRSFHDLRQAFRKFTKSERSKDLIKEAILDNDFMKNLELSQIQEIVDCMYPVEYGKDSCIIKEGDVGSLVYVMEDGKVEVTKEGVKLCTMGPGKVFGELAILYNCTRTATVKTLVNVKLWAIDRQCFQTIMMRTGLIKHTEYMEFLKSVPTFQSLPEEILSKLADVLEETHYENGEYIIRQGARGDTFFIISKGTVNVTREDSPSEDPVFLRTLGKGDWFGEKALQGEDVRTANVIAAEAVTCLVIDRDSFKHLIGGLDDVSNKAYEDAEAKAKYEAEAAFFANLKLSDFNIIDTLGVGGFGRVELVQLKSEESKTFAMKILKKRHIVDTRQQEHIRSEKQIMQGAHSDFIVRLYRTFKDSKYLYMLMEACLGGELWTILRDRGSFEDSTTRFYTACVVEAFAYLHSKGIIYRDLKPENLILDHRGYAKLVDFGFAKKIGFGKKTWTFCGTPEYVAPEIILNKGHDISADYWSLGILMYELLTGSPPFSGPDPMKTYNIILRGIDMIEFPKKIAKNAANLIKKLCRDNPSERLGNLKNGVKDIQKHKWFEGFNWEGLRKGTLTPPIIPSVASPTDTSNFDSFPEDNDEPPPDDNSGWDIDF
Procedure: as §1

ROS1 = ROS1 (Homo sapiens, UniProt P08922)
Procedure: as §1

RPS6KA4 (MSK2) = RPS6KA4 (MSK2) (Homo sapiens, UniProt O75676)
Procedure: as §1

SGK (SGK1) = SGK (SGK1) (Homo sapiens, UniProt O00141)
Chain of SGK (SGK1) (O00141 whole entry): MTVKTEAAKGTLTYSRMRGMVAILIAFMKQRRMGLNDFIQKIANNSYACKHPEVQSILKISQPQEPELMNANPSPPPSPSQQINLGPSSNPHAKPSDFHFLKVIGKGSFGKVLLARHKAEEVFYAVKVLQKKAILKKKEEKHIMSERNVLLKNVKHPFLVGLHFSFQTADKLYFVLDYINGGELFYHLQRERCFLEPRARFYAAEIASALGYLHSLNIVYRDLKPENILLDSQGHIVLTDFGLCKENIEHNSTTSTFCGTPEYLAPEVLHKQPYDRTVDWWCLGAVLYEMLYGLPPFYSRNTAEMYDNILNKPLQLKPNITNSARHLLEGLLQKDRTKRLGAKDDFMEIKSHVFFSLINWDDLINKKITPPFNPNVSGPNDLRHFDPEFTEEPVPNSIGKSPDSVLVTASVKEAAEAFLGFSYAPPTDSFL
Procedure: as §1

SGKL (SGK3) = SGKL (SGK3) (Homo sapiens, UniProt Q96BR1)
Chain of SGKL (SGK3) (Q96BR1 whole entry): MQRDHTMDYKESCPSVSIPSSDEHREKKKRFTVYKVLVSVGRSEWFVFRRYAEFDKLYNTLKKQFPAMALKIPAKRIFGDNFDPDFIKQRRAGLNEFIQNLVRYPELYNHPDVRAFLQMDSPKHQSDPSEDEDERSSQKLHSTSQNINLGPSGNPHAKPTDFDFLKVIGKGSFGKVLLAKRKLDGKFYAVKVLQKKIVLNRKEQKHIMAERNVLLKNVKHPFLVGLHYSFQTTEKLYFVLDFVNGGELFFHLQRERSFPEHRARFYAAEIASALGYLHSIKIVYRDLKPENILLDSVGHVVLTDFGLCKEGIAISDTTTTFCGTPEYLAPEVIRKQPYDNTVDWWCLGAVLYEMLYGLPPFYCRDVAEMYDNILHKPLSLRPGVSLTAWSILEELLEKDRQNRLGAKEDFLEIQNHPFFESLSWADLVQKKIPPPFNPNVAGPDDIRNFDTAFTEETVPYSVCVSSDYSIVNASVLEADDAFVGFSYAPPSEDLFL
Procedure: as §1

inhibition at 1 µM (ACVR1B (ALK4)): 7%
inhibition at 1 µM (BLK): 7%
inhibition at 1 µM (CSNK1D (CK1 delta)): 95%
inhibition at 1 µM (FGR): 2%
inhibition at 1 µM (HCK): 5%
inhibition at 1 µM (KIT): 36%
inhibition at 1 µM (MAP2K6 (MKK6)): 12%
inhibition at 1 µM (MAP4K2 (GCK)): -12%
inhibition at 1 µM (MAPKAPK3): 12%
inhibition at 1 µM (MARK1): 2%
inhibition at 1 µM (PAK4): 1%
inhibition at 1 µM (PDK1): 13%
inhibition at 1 µM (PKN1 (PRK1)): -10%
inhibition at 1 µM (PLK3): 4%
inhibition at 1 µM (PRKCB1 (PKC beta I)): 36%
inhibition at 1 µM (PRKCD (PKC delta)): 6%
inhibition at 1 µM (PRKCZ (PKC zeta)): -7%
inhibition at 1 µM (PRKG1): -3%
inhibition at 1 µM (ROS1): 11%
inhibition at 1 µM (RPS6KA4 (MSK2)): 5%
inhibition at 1 µM (SGK (SGK1)): 7%
inhibition at 1 µM (SGKL (SGK3)): -1%
Structure (SMILES): N#CCCNc1nccc(-c2cn(CC(F)F)nc2-c2cnc3[nH]ccc3c2)n1 [RAFi, PF-04880594]
